Data: patent US5118681A (priority 1989, dated 1992)
≈ marks a conversion by molar mass, not a printed value. Read-outs that look alike come from different tables or passages of the source.

Experiments:
A.n = assay: Minimum Inhibitory Concentration Test, alternate (Table 4), A.n; format: cell-based, Aspergillus niger; conditions: Aspergillus niger, TSB, 72 hours
Method: (§1) A 125 μl aliquot of 10,000 ppm test compound in acetone was added to 4.88 ml of TSB to provide a 250 ppm solution. From this solution, 100 μL was transferred to the first row of two microtiter plate columns. Both replicates and five additional compounds were all serially diluted 1:1 to a final concentration of 0.8 ppm in TSB.
(§2) Inoculation was accomplished by diluting a 24 hr Ps fl culture, four mls per 36 mls of phosphate buffer solution. A Dynatech autoinoculator was used to transfer 1.5 μl of this cell suspension to the microtiter plates. The plates were incubated at 30° C. for 3 days before the lowest concentration at which no growth occurs was recorded in the database. The SOK data and MIC test data on Ps.fl, Ps.ae, E.c, and S.a. bacteria and Candida albicans (C.alb), A.n and A.p fungi are listed in Table 4.

Pseudomonas fluorescens = assay: Minimum Inhibitory Concentration Test, alternate (Table 4), Ps.fl; format: cell-based; conditions: Pseudomonas fluorescens, TSB, 72 hours, 30° C
Method: as §1, §2

[1] = test system: Pseudoperonospora cubensis; assay: whole plant or invertebrate; format: in vivo; conditions: Pseudoperonospora cubensis, in Cucumis sativus, 168 h; read-out: % control CDM
Piricularia oryzae = assay: whole plant or invertebrate; format: in vivo; conditions: Pyricularia oryzae, read-out: % control RB
[2] = test system: Pellicularia filamentosa (f. sp. sasiki); assay: whole plant or invertebrate; format: in vivo; conditions: 120 h; read-out: % control RSB
Phytophthora infestans = assay: whole plant or invertebrate; format: in vivo; conditions: Phytophthora infestans, in Solanum lycopersicum, 96 h, read-out: % control TLB
[3] = test system: Erysiphe graminis (f. sp. tritici); assay: whole plant or invertebrate; format: in vivo; conditions: Blumeria graminis; read-out: % control WPM
[4] = test system: Puccinia recondita (f. sp. tritici Races PKB and PLD); assay: whole plant or invertebrate; format: in vivo
[5] = Puccinia recondita, 240 h; read-out: % control WLR

Compound | MIC (A.n) [µg/mL] | MIC (Pseudomonas fluorescens) [µg/mL] | pest or weed control at 200 ppm [1] [%] | pest or weed control at 200 ppm (Piricularia oryzae) [%] | pest or weed control at 200 ppm [2] [%] | pest or weed control at 200 ppm (Phytophthora infestans) [%] | pest or weed control at 200 ppm [3] [%] | pest or weed control at 200 ppm [4, 5] [%] | pest or weed control at 100 ppm [1] [%] | pest or weed control at 100 ppm (Piricularia oryzae) [%] | pest or weed control at 100 ppm [2] [%] | pest or weed control at 100 ppm (Phytophthora infestans) [%] | pest or weed control at 100 ppm [3] [%] | pest or weed control at 100 ppm [4, 5] [%] | pest or weed control at 100 ppm ([4]; Puccinia recondita, 240 h, read-out: % control WLR) [%]
CCCCCCCCCCNC(=O)C(S/C=C\C(=O)NCCCCCCCC)C(=O)OCC (stereo not drawn) [Example 26, N-n-octyl-cis-3-[2-(ethyl-N-n-decylmalonamido)thio]acrylamide] | > 500 | > 500 | 100 | 50 | 0 | 80 | 50 | 75 |  |  |  |  |  |  | 
CCCCCCCCNC(=O)/C=C\SC(C(C)=O)C(=O)Nc1ccccc1 (stereo not drawn) [Example 31, N-n-octyl-cis-3-[2-(N-phenylacetoacetamido)thio]acrylamide] | 250 (≈ 640 µM) | 500 (≈ 1280 µM) | 100 | 95 | 0 | 95 | 0 | 50 |  |  |  |  |  |  | 
CCCCCCCCNC(=O)/C=C\SC(C(=O)NCc1cccc(OC)c1)C(=O)OCC (stereo not drawn) [Example 32, N-n-octyl-cis-3-{2-[ethyl-N-(3-methoxybenzyl)malonamido]thio}acrylamide] | 500 (≈ 1080 µM) | > 500 | 99 | 95 | 0 | 100 | 0 | 75 |  |  |  |  |  |  | 
CCCCCCCCNC(=O)/C=C\SC(C(=O)NCc1ccc(C)cc1)C(=O)OCC (stereo not drawn) [Example 33, N-n-octyl-cis-3-{2-[ethyl-N-(4-methylbenzyl)malonamido]thio}acrylamide] | 250 to 500 (≈ 557 to 1110 µM) | > 500 | 99 | 90 | 0 | 95 | 0 | 0 |  |  |  |  |  |  | 
CCCCCCCCNC(=O)/C=C\SC(C(=O)Nc1ccc(Cl)cc1)C(=O)OCC (stereo not drawn) [Example 34, N-n-octyl-cis-3-{2-[ethyl-N-(4-chlorophenyl)malonamido]thio}acrylamide] | > 500 | > 500 |  |  |  |  |  |  | 85 | 0 | 0 | 50 | 50 | 50 | 
CCCCCCCCNC(=O)/C=C\SC(C(=O)NCc1ccccc1Cl)C(=O)OCC (stereo not drawn) [Example 38, N-n-octyl-cis-3-{2-[ethyl-N-(2-chlorobenzyl)malonamido]thio}acrylamide] | 125 to 250 (≈ 266 to 533 µM) | > 500 |  |  |  |  |  |  | 99 | 50 | 0 | 95 | 0 | 0 | 
CCCCCCCCNC(=O)/C=C\SC(C(=O)Nc1cccc(Cl)c1C)C(=O)OCC (stereo not drawn) [Example 39, N-n-octyl-cis-3-{2-[ethyl-N-(2-methyl-3-chlorophenyl)malonamido]thio}acrylamide] | 500 (≈ 1070 µM) | > 500 |  |  |  |  |  |  | 100 | 50 | 0 | 100 | 50 | 75 | 
CCCCCCCCNC(=O)/C=C\SC(C(=O)NCc1cccc(C)c1)C(=O)OCC (stereo not drawn) [Example 40, N-n-octyl-cis-3-{2-[ethyl-N-(3-methylbenzyl)malonamido]thio}acrylamide] | 125 to 250 (≈ 279 to 557 µM) | > 500 |  |  |  |  |  |  | 99 | 50 | 0 | 100 | 0 |  | 75
CCCCCCCCNC(=O)/C=C\SC(C(=O)Nc1ccc(Cl)c(Cl)c1)C(=O)OCC (stereo not drawn) [Example 52, N-n-octyl-cis-3-{2-[ethyl-N-(3,4-dichlorophenyl)malonamido]thio}acrylamide] | > 500 | > 500 |  |  |  |  |  |  | 99 | 80 | 0 | 80 | 0 | 0 | 
CCCCCCCCNC(=O)/C=C\SC(C(=O)Nc1cc(Cl)cc(Cl)c1)C(=O)OCC (stereo not drawn) [Example 55, N-n-octyl-cis-3-{2-[ethyl-N-(3,5-dichlorophenyl)malonamido]thio}acrylamide] | > 500 | > 500 |  |  |  |  |  |  | 85 | 95 | 0 | 80 | 50 | 0 | 
CCCCCCCCNC(=O)/C=C\SC(C(=O)NCc1ccccc1OC)C(=O)OCC (stereo not drawn) [Example 56, N-n-octyl-cis-3-{2-[ethyl-N-(2-methoxybenzyl)malonamido]thio}acrylamide] | 250 (≈ 538 µM) | > 500 |  |  |  |  |  |  | 100 | 90 | 0 | 80 | 0 | 0 | 
CCCCCCCCNC(=O)/C=C\SC(C(C)=O)C(=O)Nc1ccccc1C (stereo not drawn) [Example 57, N-n-octyl-cis-3-{2-[N-(2-methylphenyl)acetoacetamido]thio}acrylamide] | 250 (≈ 618 µM) | > 500 |  |  |  |  |  |  | 0 | 80 | 100 | 0 | 50 | 0 | 
CCCCCCCCNC(=O)/C=C\SC(C(=O)Nc1ccc(OC)cc1)C(=O)OCC (stereo not drawn) [Example 58, N-n-octyl-cis-3-{2-[ethyl-N-(4-methoxyphenyl)malonamido]thio}acrylamide] | 250 (≈ 555 µM) | > 500 |  |  |  |  |  |  | 100 | 0 | 0 | 0 | 0 | 0 | 
CCCCCCCCNC(=O)/C=C\SC(C(=O)Nc1c(C)cccc1Cl)C(=O)OCC (stereo not drawn) [Example 59, N-n-octyl-cis-3-{2-[ethyl-N-(2-chloro-6-methylphenyl)malonamido]thio}acrylamide] | 250 (≈ 533 µM) | > 250 |  |  |  |  |  |  | 99 | 50 | 0 | 95 | 0 | 50 | 
CCCCCCCCNC(=O)/C=C\SC(C(=O)NCc1ccc(OC)cc1)C(=O)OCC (stereo not drawn) [Example 60, N-n-octyl-cis-3-{2-[ethyl-N-(4-methoxybenzyl)malonamido]thio}acrylamide] | > 250 | > 250 |  |  |  |  |  |  | 99 | 0 | 0 | 80 | 0 | 0 | 
CCCCCCCCNC(=O)/C=C\SC(C(=O)Nc1ncccn1)C(=O)OCC (stereo not drawn) [Example 62, N-n-octyl-cis-3-{2-[ethyl-N-(2-pyrimidinyl)malonamido]thio}acrylamide] | > 250 | > 250 |  |  |  |  |  |  | 85 | 0 | 0 | 0 | 0 | 0 | 
CCCCCCCCNC(=O)/C=C\SC(C(=O)NCc1ccc([N+](=O)[O-])cc1)C(=O)OCC (stereo not drawn) [Example 64, N-n-octyl-cis-3-{2-[ethyl-N-(4-nitrobenzyl)malonamido]thio}acrylamide] | > 250 | > 250 |  |  |  |  |  |  | 100 | 0 | 0 | 0 | 50 | 50 | 
CCCCCCCCNC(=O)/C=C\SC(C(=O)NCc1cccc([N+](=O)[O-])c1)C(=O)OCC (stereo not drawn) [Example 65, N-n-octyl-cis-3-{2-[ethyl-N-(3-nitrobenzyl)malonamido]thio}acrylamide] | > 250 | > 250 |  |  |  |  |  |  | 100 | 0 | 0 | 80 | 0 | 50 | 
